Several values for one entry are separate records, joined by “and”; a condition that tells them apart may be missing. Identical values can stand only once. Like-named read-outs stand apart in the source and are kept apart here.
What was measured:
[1] = biological target: HLA-A2.1 (Homo sapiens, UniProt P04439, D140Y/D185E/D98H/E176V/E277Q/G131W/G231S/I119V/I121R/I166T/I218V/L300P/L318F/N151K/N90K/P208A/P217A/Q86G/Q94H/R138H/R169H/T345S); experiment: Competition assay of peptide binding to HLA-A2.1 (inhibition of M1 58-66 binding, clone 12 lysis of EA2 targets)
[2] = system: A2.1/K^b-Tg mice; experiment: Peptide priming of A2.1/K^b-Tg mice, lytic activity of peptide-specific CTL; assay type: in vivo; design: Lytic Activity by Peptide-Specific CTL After Priming of A2.1/K^b-Tg Mice [Specific ^51Cr release (%)]: concentration or dose not given beside the values; settings: for Lytic Activity by Peptide-Specific CTL After Priming of A2.1/K^b-Tg Mice [Specific ^51Cr release (%)]: E:T ratio of 60:1, peptide-pulsed T2A2/K^b targets, highest of at least three individual mice; for A2.1/K^b-restricted peptide-specific CTL response of A2.1/K^b-Tg mice (in words): mouse, in vivo
[3] = system: Saos-2/175; experiment: 5-hour ^51Cr release assay, endogenously synthesized p53 epitopes (Example 4); assay type: cell-based, human; settings: relative to p53-deficient Saos-2
[4] = system: CASKI; experiment: Cytotoxicity assay, killing of tumors (Table 7); assay type: cell-based, human
Protocol: (§1) One hundred and six (106) target cells were incubated at 37° C. with […] of sodium ^51Cr chromate for 90 minutes in the presence or absence of specific peptide. Cells were washed three times and resuspended in 5% RPMI. For the assay, 104 ^51Cr-labeled target cells were incubated with different concentrations of effector cells in a final volume of […] in U-bottomed 96-well plates. Supernatants were removed after 4-7 hrs at 37° C., and the percent specific lysis was determined by the following formula: […]
(§2) Tumor cells were preincubated for 24 hours prior to the assay in media supplemented with γ-interferon (γ-IFN, 20 ng/ml) plus tumor necrosis factor-α (TNF-α, 3 ng/ml). It is known that such pretreatment of tumor cells increases the expression of MHC I and adhesion molecules such as ICAM I on the surface of the cell thus enhancing their sensitivity to lysis by CTL. (See, e.g., Fisk, et al., Lympho. & Cylokine Res. 13: 125-131 (1994); Fady, et al., Cancer Immunol. Immunother. 37: 329-336 (1993).)

[5] = system: Hep-G2; experiment: Cytotoxicity assay, killing of tumors (Table 7); assay type: cell-based, human
Protocol: as §1, §2

[6] = system: JY; experiment: Cytotoxicity assay, killing of tumors (Table 7); assay type: cell-based, human
Protocol: as §1, §2

[7] = system: LG-2; experiment: Cytotoxicity assay, killing of tumors (Table 7); assay type: cell-based, human
Protocol: as §1, §2

[8] = system: MALME-3M; experiment: Cytotoxicity assay, killing of tumors (Table 7); assay type: cell-based, human
Protocol: as §1, §2

[9] = system: MCF-7; experiment: Cytotoxicity assay, killing of tumors (Table 7); assay type: cell-based, human
Protocol: as §1, §2

[10] = system: MDA.MB435; experiment: Cytotoxicity assay, killing of tumors (Table 7); assay type: cell-based, human
Protocol: as §1, §2

[11] = system: OVCAR-5; experiment: Cytotoxicity assay, killing of tumors (Table 7); assay type: cell-based, human
Protocol: as §1, §2

[12] = system: SAOS.175; experiment: Cytotoxicity assay, killing of tumors (Table 7); assay type: cell-based, human
Protocol: as §1, §2

[13] = system: SKMEL-5; experiment: Cytotoxicity assay, killing of tumors (Table 7); assay type: cell-based, human
Protocol: as §1, §2

[14] = system: ST486; experiment: Cytotoxicity assay, killing of tumors (Table 7); assay type: cell-based, human
Protocol: as §1, §2

[15] = system: SV80; experiment: Cytotoxicity assay, killing of tumors (Table 7); assay type: cell-based, human
Protocol: as §1, §2

[16] = system: SW480; experiment: Cytotoxicity assay, killing of tumors (Table 7); assay type: cell-based, human
Protocol: as §1, §2

[17] = system: T98G; experiment: Cytotoxicity assay, killing of tumors (Table 7); assay type: cell-based, human
Protocol: as §1, §2

[18] = system: U2-OS; experiment: Cytotoxicity assay, killing of tumors (Table 7); assay type: cell-based, human
Protocol: as §1, §2

[19] = system: U87G; experiment: Cytotoxicity assay, killing of tumors (Table 7); assay type: cell-based, human
Protocol: as §1, §2

[20] = system: peptide-pulsed T2 targets; assay type: cell-based, human
[21] = system: BT549; experiment: Cytotoxicity assay, killing of tumors (Table 7); assay type: cell-based, human; settings: BT549, Breast, A2 +
Protocol: as §1, §2

[22] = system: MDA.M8231; experiment: Cytotoxicity assay, killing of tumors (Table 7); assay type: cell-based, human; settings: MDA.M8231, Breast, A2 +
Protocol: as §1, §2

[23] = system: NCI.H1355; experiment: Cytotoxicity assay, killing of tumors (Table 7); assay type: cell-based, human; settings: NCI.H1355, Lung, A2 +
Protocol: as §1, §2

[24] = + CYT (γ-IFN plus TNF-α, 24 hours)

RMPEAAPPV [hu-wt-p53 65-73]
A2.1-binding activity / affinity for the presenting MHC class I molecule (in words) [1]: high affinity
Lytic Activity by Peptide-Specific CTL After Priming of A2.1/K^b-Tg Mice [Specific ^51Cr release (%)] [2]: 85%
A2.1/K^b-restricted peptide-specific CTL response of A2.1/K^b-Tg mice (in words) [2]: detectable
recognition of Saos-2/175 by CTL from A2.1/K^b-Tg mice specific for the peptide (endogenous processing and presentation) [3]: did not lyse Saos-2/175

KLVGKLNWA [HIV-9K, reference compound]
Killing of Tumors Expressing Her-2/neu (percent specific lysis) [4]: 8% and 11%
Killing of Tumors Expressing Her-2/neu (percent specific lysis) [5]: 1% and 8%
Killing of Tumors Expressing Her-2/neu (percent specific lysis) [6]: 2% and 1%
Killing of Tumors Expressing Her-2/neu (percent specific lysis) [7]: 1%
Killing of Tumors Expressing Her-2/neu (percent specific lysis) [8]: 2% and 1%
Killing of Tumors Expressing Her-2/neu (percent specific lysis) [9]: 3% and 7%
Killing of Tumors Expressing Her-2/neu (percent specific lysis) [10]: 4% and 3%
Killing of Tumors Expressing Her-2/neu (percent specific lysis) [11]: 10% and 12%
Killing of Tumors Expressing Her-2/neu (percent specific lysis) [12]: 18% and 11%
Killing of Tumors Expressing Her-2/neu (percent specific lysis) [13]: 5% and 4%
Killing of Tumors Expressing Her-2/neu (percent specific lysis) [14]: 1%
Killing of Tumors Expressing Her-2/neu (percent specific lysis) [15]: 2%
Killing of Tumors Expressing Her-2/neu (percent specific lysis) [16]: 1% and 4%
Killing of Tumors Expressing Her-2/neu (percent specific lysis) [17]: 9% and 13%
Killing of Tumors Expressing Her-2/neu (percent specific lysis) [18]: 18% and 24%
Killing of Tumors Expressing Her-2/neu (percent specific lysis) [19]: 5% and 1%

STPPPGTRV [hu-wt-p53 149-157]
A2.1-binding activity / affinity for the presenting MHC class I molecule (in words) [1]: intermediate affinity
Lytic Activity by Peptide-Specific CTL After Priming of A2.1/K^b-Tg Mice [Specific ^51Cr release (%)] [2]: 91%
A2.1/K^b-restricted peptide-specific CTL response of A2.1/K^b-Tg mice (in words) [2]: detectable
peptide concentration required for equivalent lysis of T2 targets by A2 vs. A2.1/K^b derived CTL (fold less) [20]: 3 fold

VMAGVGSPYV [Peptide H7]
Killing of Tumors Expressing Her-2/neu (percent specific lysis) [21, 24]: 36%
Killing of Tumors Expressing Her-2/neu (percent specific lysis) ([21]; no cytokines): 2%
Killing of Tumors Expressing Her-2/neu (percent specific lysis) ([4]; CASKI, Cervix, A2 +, Her-2 +, + CYT (γ-IFN plus TNF-α, 24 hours)): 20%
Killing of Tumors Expressing Her-2/neu (percent specific lysis) ([4]; CASKI, Cervix, A2 +, Her-2 +, no cytokines): 9%
Killing of Tumors Expressing Her-2/neu (percent specific lysis) ([5]; Hep-G2, Hepatoma, A2 +, Her-2 +, + CYT (γ-IFN plus TNF-α, 24 hours)): 29%
Killing of Tumors Expressing Her-2/neu (percent specific lysis) ([5]; Hep-G2, Hepatoma, A2 +, Her-2 +, no cytokines): 4%
Killing of Tumors Expressing Her-2/neu (percent specific lysis) ([6]; JY, Lymphoma, A2 +, Her-2 −, + CYT (γ-IFN plus TNF-α, 24 hours)): 2%
Killing of Tumors Expressing Her-2/neu (percent specific lysis) ([6]; JY, Lymphoma, A2 +, Her-2 −, no cytokines): 4%
Killing of Tumors Expressing Her-2/neu (percent specific lysis) ([7]; LG-2, EBV-trans., A2 +, Her-2 −, + CYT (γ-IFN plus TNF-α, 24 hours)): 3%
Killing of Tumors Expressing Her-2/neu (percent specific lysis) ([7]; LG-2, EBV-trans., A2 +, Her-2 −, no cytokines): 1%
Killing of Tumors Expressing Her-2/neu (percent specific lysis) ([8]; MALME-3M, Melanoma, A2 +, Her-2 +, + CYT (γ-IFN plus TNF-α, 24 hours)): 14%
Killing of Tumors Expressing Her-2/neu (percent specific lysis) ([8]; MALME-3M, Melanoma, A2 +, Her-2 +, no cytokines): 4%
Killing of Tumors Expressing Her-2/neu (percent specific lysis) ([9]; MCF-7, Breast, A2 +, Her-2 +, + CYT (γ-IFN plus TNF-α, 24 hours)): 40%
Killing of Tumors Expressing Her-2/neu (percent specific lysis) ([9]; MCF-7, Breast, A2 +, Her-2 +, no cytokines): 7%
Killing of Tumors Expressing Her-2/neu (percent specific lysis) [22, 24]: 89%
Killing of Tumors Expressing Her-2/neu (percent specific lysis) ([22]; no cytokines): 26%
Killing of Tumors Expressing Her-2/neu (percent specific lysis) ([10]; MDA.MB435, Breast, A2 −, Her-2 +, + CYT (γ-IFN plus TNF-α, 24 hours)): 1%
Killing of Tumors Expressing Her-2/neu (percent specific lysis) ([10]; MDA.MB435, Breast, A2 −, Her-2 +, no cytokines): 1%
Killing of Tumors Expressing Her-2/neu (percent specific lysis) [23, 24]: 62%
Killing of Tumors Expressing Her-2/neu (percent specific lysis) ([23]; no cytokines): 13%
Killing of Tumors Expressing Her-2/neu (percent specific lysis) ([11]; OVCAR-5, Ovarian, A2 +, Her-2 +, + CYT (γ-IFN plus TNF-α, 24 hours)): 23%
Killing of Tumors Expressing Her-2/neu (percent specific lysis) ([11]; OVCAR-5, Ovarian, A2 +, Her-2 +, no cytokines): 13%
Killing of Tumors Expressing Her-2/neu (percent specific lysis) ([12]; SAOS.175, Osteosarcoma, A2 +, Her-2 +, + CYT (γ-IFN plus TNF-α, 24 hours)): 35%
Killing of Tumors Expressing Her-2/neu (percent specific lysis) ([12]; SAOS.175, Osteosarcoma, A2 +, Her-2 +, no cytokines): 27%
Killing of Tumors Expressing Her-2/neu (percent specific lysis) ([13]; SKMEL-5, Melanoma, A2 +, Her-2 +, + CYT (γ-IFN plus TNF-α, 24 hours)): 40%
Killing of Tumors Expressing Her-2/neu (percent specific lysis) ([13]; SKMEL-5, Melanoma, A2 +, Her-2 +, no cytokines): 16%
Killing of Tumors Expressing Her-2/neu (percent specific lysis) ([14]; ST486, Lymphoma, A2 +, Her-2 −, + CYT (γ-IFN plus TNF-α, 24 hours)): 8%
Killing of Tumors Expressing Her-2/neu (percent specific lysis) ([14]; ST486, Lymphoma, A2 +, Her-2 −, no cytokines): 5%
Killing of Tumors Expressing Her-2/neu (percent specific lysis) ([15]; SV80, Fibroblast, A2 +, Her-2 −, + CYT (γ-IFN plus TNF-α, 24 hours)): 2%
Killing of Tumors Expressing Her-2/neu (percent specific lysis) ([15]; SV80, Fibroblast, A2 +, Her-2 −, no cytokines): 2%
Killing of Tumors Expressing Her-2/neu (percent specific lysis) ([16]; SW480, Colon, A2 +, Her-2 +, + CYT (γ-IFN plus TNF-α, 24 hours)): 17%
Killing of Tumors Expressing Her-2/neu (percent specific lysis) ([16]; SW480, Colon, A2 +, Her-2 +, no cytokines): 2%
Killing of Tumors Expressing Her-2/neu (percent specific lysis) ([17]; T98G, Glioblastoma, A2 +, Her-2 +, + CYT (γ-IFN plus TNF-α, 24 hours)): 93%
Killing of Tumors Expressing Her-2/neu (percent specific lysis) ([17]; T98G, Glioblastoma, A2 +, Her-2 +, no cytokines): 29%
Killing of Tumors Expressing Her-2/neu (percent specific lysis) ([18]; U2-OS, Osteosarcoma, A2 +, Her-2 +, + CYT (γ-IFN plus TNF-α, 24 hours)): 62%
Killing of Tumors Expressing Her-2/neu (percent specific lysis) ([18]; U2-OS, Osteosarcoma, A2 +, Her-2 +, no cytokines): 30%
Killing of Tumors Expressing Her-2/neu (percent specific lysis) ([19]; U87G, Glioblastoma, A2 +, Her-2 −, + CYT (γ-IFN plus TNF-α, 24 hours)): 1%
Killing of Tumors Expressing Her-2/neu (percent specific lysis) ([19]; U87G, Glioblastoma, A2 +, Her-2 −, no cytokines): 1%

LLPENNVLSPL [hu-wt-p53 25-35]
A2.1-binding activity / affinity for the presenting MHC class I molecule (in words) [1]: high affinity
Lytic Activity by Peptide-Specific CTL After Priming of A2.1/K^b-Tg Mice [Specific ^51Cr release (%)] [2]: 47%
A2.1/K^b-restricted peptide-specific CTL response of A2.1/K^b-Tg mice (in words) [2]: detectable
recognition of Saos-2/175 by CTL from A2.1/K^b-Tg mice specific for the peptide (endogenous processing and presentation) [3]: did not lyse Saos-2/175

— patent US7402314B2, “In vivo activation of tumor-specific cytotoxic T cells” (The Scripps Research Institute, priority 1995, dated 2008)
